“Also recorded” adds a separate entry of the source.
System: Human prostate stromal cells PrSC
Test: Cell growth suppressive activity (MTT, Test Example 1)
Format: cell-based
Conditions: 0.024 to 100 μg/mL, 3 days culture, MTT absorbance at 570 nm, result in words
Protocol: Human prostate stromal cells PrSC (product of Bio Whittaker) were added to DMEM (product of NISSUI PHARMACEUTICAL CO., LTD.) containing 10% by mass FBS (fetal bovine serum) (product of ICN Biomedicals) to prepare a cell suspension having a concentration of 5×10^4 cells/mL. The cell suspension was placed in a 96-well plate in an amount of 0.1 mL per well. Each of the amycolose derivatives (compounds 1, 2 and 3) was added to the wells at a final concentration of 0.024 μg/mL, 0.098 μg/mL, 0.391 μg/mL, 1.563 μg/mL, 6.25 μg/mL, 25 μg/mL or 100 μg/mL, followed by culturing in an incubator for 3 days at 37° C. and 5% CO2. Then, MTT (3-[4,5-dimethylthiazol-2-yl]-2,5-diphenyltetrazolium bromide) (product of Sigma Co.), which had been adjusted with a phosphate buffer to have a concentration of 5 mg/mL, was added to each well in an amount of 10 μL, followed by culturing in an incubator for 4 hours at 37° C. and 5% CO2. Subsequently, 10 μL of 20% by mass SDS (sodium dodecylsulphate) prepared with 10 mM hydrochloric acid was added to each well, and the plate was left to stand still overnight at 37° C. to dissolve formazan formed from MTT. Thereafter, the plate was measured for absorbance at 570 nm with an absorptiometer (hereinafter may be referred to as “amycolose derivative-added sample's absorbance”). Regarding as 100% the absorbance measured when no amycolose derivative was added (hereinafter may be referred to as “control absorbance”), the cell growth rate in each of the amycolose derivatives (compounds 1, 2 and 3) at the above concentrations was calculated using the following equation (1).
Cell growth rate (%)=amycolose derivative-added sample's absorbance/control absorbance×100 Equation (1)

Row | SMILES | cell growth suppressive activity (cell growth rate, FIG. 5)
1 | CO[C@@H]1C[C@@](O)([C@H](C)NC(=O)c2[nH]c(C)c(Cl)c2Cl)[C@H](O)[C@@H](C)O1 [compound 3] | exhibit cell growth suppressive activity
2 | Cc1[nH]c(C(=O)N[C@@H](C)[C@]2(O)CC(O)O[C@H](C)[C@H]2O)c(Cl)c1Cl (stereo partly drawn) [compound 1] | exhibit cell growth suppressive activity; also recorded: remarkable cell growth suppressive activity
3 | CO[C@H]1C[C@@](O)([C@H](C)NC(=O)c2[nH]c(C)c(Cl)c2Cl)[C@H](O)[C@@H](C)O1 [compound 2] | exhibit cell growth suppressive activity

— patent US20120184728A1, “Compound Amycolose Derivative, Method for Producing the Same, and Use of the Same” (priority 2009, published 2012)
